Data published in patent publication US20080214399A1, “Enhanced amino acid formulations” (priority 2006, published 2008).

Test system: cotton cotyledons
Experiment: Cotton cotyledon bioassay: reduction of CPPU-induced ethylene production
Type: in vivo, cotton (variety SG 105)
Details: CPPU (200 μM) alone, reference = 1.00
Protocol: A cotton bioassay system has been used in the laboratory to study the effect of formulations on AVG performance. […] One spray application of CPPU (forchlorfenuron) is made to the bottom (abaxial) and AVG was subsequently applied to the top (adaxial) surface of the cotyledons. […] Water was used as the carrier. Further dilutions were prepared as needed for foliar applications. All the data was subject to an analysis of variance, and the mean separations were determined with Duncan's new multiple range test at α=0.05. The present invention may be illustrated by the following representative examples: […]

For `O=C(Nc1ccccc1)Nc1ccnc(Cl)c1` [CPPU, forchlorfenuron], the “Reduction as compared to CPPU-treated” value was 1.00.
